Series [1] concerns HCT-116. As to the kind of experiment: Cytotoxicity against human HCT116 cells assessed as live cells after 48 to 72 hrs by MTT assay. Type of series: functional, cell-based.
The subject of series [2] is HCT-116. Description: Drug uptake in human HCT116 cells at 1 uM after 30 mins by confocal microscopy. Type of series: ADME, cell-based. The note with it: hct-116, 0.5 h.
A further series concerns HeLa. As to the kind of experiment: Drug uptake in human HeLa cells at 1 uM after 30 mins using Nile Red by confocal microscopy. Type of series: ADME, cell-based. The note with it: 0.5 h.
The subject of series [3] is HCT-116. Description: Cytotoxicity against human HCT116 cells. Type of series: functional, cell-based.

A word on the IC50: it is the concentration at which inhibition is half-maximal.

As to `C#CCCCCCCCCCCC#C[C@@H](O)C#C`, the IC50 in the series on HCT-116 [1] came to 370 nM.
Regarding `C#C[C@H](O)C#CCCCCCCCCCCc1cn(CC2=C3C(C)=CC(C)=[N+]3[B-](F)(F)n3c(C)cc(C)c32)nn1`, in the series with HCT-116 [1], the IC50 was 10000 nM. In addition, the Drug uptake entry with HCT-116 [2] and in the series on HeLa was “Active” in each case.
Turning to `C#C[C@H](O)C#CCCCCCCCCCCc1cn(-c2cc3ccc(O)cc3oc2=O)nn1`, the IC50 in the series on HCT-116 [1] amounted to 3000 nM. Further, in the series on HCT-116 [2], the Drug uptake result was “Active”.
For `C#C[C@H](O)C#CCCCCCCCCCCc1cn(CCCNc2ccc([N+](=O)[O-])c3nonc23)nn1` the same measures were 1100 nM and “Active”.
Turning to `C#C[C@H](O)C#CCCCCCCCCCCc1cn(CCCCc2ccc3ccc4cccc5ccc2c3c45)nn1`, in the series with HCT-116 [1], the 50% inhibitory concentration (IC50) was determined as 900 nM.
In the case of `C#C[C@@H](O)/C=C/CCCCCCCCCCCCCCC`, the IC50 is 90 nM in the series on HCT-116 [1] and 60 nM with HCT-116 [3].
